Here are results for 15 compounds from patent US12570615B2, “Quinazolinone derivatives” (Hoffmann-La Roche Inc., priority 2021, dated 2026).

pEC50, pIC50, pKd: −log10 of the molar value.

The term pEC50 denotes the negative decadic logarithm of the EC50, by convention in mol/L. Read a low pEC50 as a large EC50. As usually defined, the pKd is the Kd on a negative log10 scale, so that one unit is a factor of ten. The low end stands for a large Kd, the high end for a small Kd. As a reminder, the pIC50 is the negative decadic logarithm of the IC50, by convention in mol/L.

In assay [1] the test system is P-ERK (ERK phospho-T202/Y204) in HCT116 cells expressing WT BRAF. Briefly: HTRF assay for P-ERK determination in HCT116 cells (BRAF activation). Type of assay: cell-based. Particulars: Homo sapiens, HCT-116, drug incubation 1 hour, concentration giving 50% of the maximum activation achieved by Dabrafenib. From the text:
(§1) A375 is a cellular cancer model expressing V600E mutated BRAF and HCT116 a cellular cancer model expressing WT BRAF. First generation BRAF inhibitors such as e.g. dabrafenib induce a paradox effect on tumour cells in that they inhibit the growth of V600E mutated BRAF cells (such as e.g. A375), while they activate growth in WT BRAF cells (such as e.g. HCT 116). ERK 1,2 phosphorylation (terminal member of the phosphorylation cascade of the MAPK pathway) is hereafter reported as main readout for the activation status of the MAPK pathway. DMEM no-phenol red medium supplemented with L-glutamine was purchased from (Thermo Fisher Scientific). Fetal bovine serum (FBS) was purchased from VWR. Advanced ERK phospho-T202/Y204 kit—10,000 tests was purchased from Cisbio cat #64AERPEH. A375 (catalog #CRL-1619) and HCT116 (catalog #CCL-247) cells were originally obtained from American type Culture Collection (ATCC) and banked by the Roche repository. 384-Well microplates utilized were purchased from Greiner Bio-One, 384-well, (With Lid, HiBase, Low volume cat 784-080).
(§2) Prior to the assay, A375 and HCT116 cell lines are maintained in DMEM no-phenol red medium supplemented with 10% fetal bovine serum (FBS). Following compound treatment, P-ERK levels are determined by measuring FRET fluorescence signal induced by selective binding of 2 antibodies provided in the mentioned kit (Cisbio cat #64AERPEH) on ERK protein when phosphorylated at Thr202/Tyr204. Briefly, 8000 cells/well in 12 μl media/well are plated in the 384-well plate and left overnight in the incubator (at 37° C. with 5% CO2-humidified atmosphere), the following day the plate is treated in duplicate with test compounds, dabrafenib and PLX8394 (the latter two as controls) at the following final drug concentrations: 10 μM-3 μM 1 μM-0.3 μM-0.1 μM-0.03 μM-0, 01 μM-0.003 μM-0.001 μM, all wells are subjected to DMSO normalization and drug incubation occurs for 1 hour. Then, […] of a 4× lysis buffer supplied with the kit are added to the wells, the plate is then centrifuged for 30 second (3000 rpm) and incubated on a plate shaker for 1 h at rt.
(§3) At the end of the incubation 4 μL/well of advanced P-ERK antibody solution (prepared according to manufacturer's instruction) followed by 4 μL/well of criptate P-ERK antibody solution (prepared according to manufacturer's instruction) (Cisbio cat #64AERPEH) are added to test wells.
(§4) In order to allow proper data normalization control wells non drug treated reported in the following table are always included in each plate (according to manufacturer's instruction):
(§5) The plate is then centrifuged at 3000 rpm for 30 second, sealed to prevent evaporation and incubated overnight in the dark at room temperature.
(§6) The plate is then analyzed and fluorescence emission value collected through a Pherastast FSX (BMG Labtech) apparatus at […].
(§7) The obtained fluorescence values are processed according to the formula Ratio=[…]*10000 then the average of the ratio on the blank is subtracted to all values.
Data are normalized in the case of HCT116 cells (BRAF activation) considering the average of the ratio (blank subtracted) derived by DMSO only treated cells as 0% and by considering the average of the ratio (blank subtracted) derived by Dabrafenib treated cells at the concentration which provides the highest signal as 100%. Individual points are fitted with either sigmoidal or bell shape curves. The EC50 is the concentration at which activation equal to 50% of the maximum activation achieved by Dabrafenib is obtained.
(In general: In TR-FRET formats the signal depends on donor and acceptor labels being close together.)

In the next assay the target is BRAF (V600E) (Homo sapiens, UniProt P15056, V600E). Briefly: KD BRAF (V600E) (Table 1). Type of assay: binding.
For the next assay, the target named is BRAF (wt) (Homo sapiens, UniProt P15056). Briefly: KD BRAF (wt) (Table 1). Format: binding.
The test system of assay [2] is P-ERK (ERK phospho-T202/Y204) in A375 cells expressing V600E mutated BRAF. Briefly: HTRF assay for P-ERK determination in A375 cells (BRAF inhibition). Format: cell-based. As to conditions: Homo sapiens, A-375, P-ERK level, drug incubation 1 hour, DMSO = 100%, 10 μM Dabrafenib = 0%.
From the text: as §1, §2, §3, §4, §5, §6, §7
Data are normalized in the case of A375 cells (BRAF inhibition) considering the average of the ratio (blank subtracted) derived by DMSO only treated cells as 100% and by considering the average of the ratio (blank subtracted) derived by 10 μM Dabrafenib treated cells as 0%. Mean of the normalized points are fitted with sigmoidal curve and IC50 determined.

Chain of BRAF (wt) (P15056 whole entry): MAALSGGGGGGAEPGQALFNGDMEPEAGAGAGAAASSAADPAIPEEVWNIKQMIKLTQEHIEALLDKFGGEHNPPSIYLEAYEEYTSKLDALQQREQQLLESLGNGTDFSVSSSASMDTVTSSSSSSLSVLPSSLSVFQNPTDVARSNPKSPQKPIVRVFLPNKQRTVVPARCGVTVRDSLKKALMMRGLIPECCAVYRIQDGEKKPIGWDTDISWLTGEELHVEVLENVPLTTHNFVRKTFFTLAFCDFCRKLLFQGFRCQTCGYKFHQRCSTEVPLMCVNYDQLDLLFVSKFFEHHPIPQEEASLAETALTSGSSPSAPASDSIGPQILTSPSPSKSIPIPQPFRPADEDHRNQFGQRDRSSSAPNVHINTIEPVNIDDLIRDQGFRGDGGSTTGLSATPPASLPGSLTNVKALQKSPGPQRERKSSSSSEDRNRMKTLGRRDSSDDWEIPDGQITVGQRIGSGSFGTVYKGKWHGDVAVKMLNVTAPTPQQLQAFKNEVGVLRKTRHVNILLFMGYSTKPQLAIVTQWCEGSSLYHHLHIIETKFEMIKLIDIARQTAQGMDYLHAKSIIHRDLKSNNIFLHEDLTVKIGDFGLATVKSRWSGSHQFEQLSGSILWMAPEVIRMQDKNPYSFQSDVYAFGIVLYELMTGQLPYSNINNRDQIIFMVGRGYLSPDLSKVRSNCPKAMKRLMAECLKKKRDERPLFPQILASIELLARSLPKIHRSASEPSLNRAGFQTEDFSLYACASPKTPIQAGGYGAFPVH
Chain of BRAF (V600E) (P15056 whole entry V600E): as the sequence (P15056 whole entry) above, with V600E counted along it

Consider `CC(C)(C)OC(=O)N1CCN(CCn2cnc3ccc(Oc4c(F)ccc(NS(=O)(=O)N5CCCC5)c4C#N)cc3c2=O)CC1` [Example 16, tert-butyl 4-[2-[6-[2-cyano-6-fluoro-3-(pyrrolidin-1-ylsulfonylamino)phenoxy]-4-oxo-quinazolin-3-yl]ethyl]piperazine-1-carboxylate], for which, in assay [1], the negative logarithm of the EC50 (pEC50) was 6.62. The pKd at BRAF (V600E) is 8.67; at BRAF (wt), 8.79. This compound also had a negative logarithm of the IC50 (pIC50) in assay [2] of 7.96.

Take `CN(CCCn1cnc2ccc(Oc3c(F)ccc(NS(=O)(=O)C4CCCC4)c3C#N)cc2c1=O)C(=O)OC(C)(C)C` [Example 20, tert-butyl N-[3-[6-[2-cyano-3-(cyclopentylsulfonylamino)-6-fluoro-phenoxy]-4-oxo-quinazolin-3-yl]propyl]-N-methyl-carbamate]: the negative-log EC50 (pEC50) in assay [1] is no more than 5.00. Moreover, the negative logarithm of the Kd (pKd) is 8.04 at BRAF (V600E) and 8.48 on BRAF (wt). For the same compound, in assay [2], the pIC50 is 6.36.

For `CN(CCNC(=O)CCCn1cnc2ccc(Nc3cccc(NS(=O)(=O)N4CC[C@@H](F)C4)c3C#N)cc2c1=O)C(=O)OC(C)(C)C` [Example 45, tert-butyl N-[2-[4-[6-[2-cyano-3-[[(3R)-3-fluoropyrrolidin-1-yl]sulfonylamino]anilino]-4-oxo-quinazolin-3-yl]butanoylamino]ethyl]-N-methyl-carbamate], the negative logarithm of the EC50 (pEC50) in assay [1] was no more than 5.00. In addition, the negative logarithm of the Kd (pKd) on BRAF (V600E) is 8.08; on BRAF (wt) it was 8.47. For the same compound, the pIC50 in assay [2] is 6.09.

In assay [1], `CCN(C)S(=O)(=O)Nc1ccc(F)c(Oc2ccc3ncn(CCCC(=O)OC(C)(C)C)c(=O)c3c2)c1C#N` [Example 1, tert-butyl 4-[6-[2-cyano-3-[[ethyl(methyl)sulfamoyl]amino]-6-fluoro-phenoxy]-4-oxo-quinazolin-3-yl]butanoate] had a negative-log EC50 (pEC50) of 5.63. Also, the figures for the pKd on BRAF (V600E) and on BRAF (wt) were 7.57 and 7.82, respectively. This compound also gave a pIC50 in assay [2] of 7.70.

`CC(C)(C)OC(=O)NCCCn1cnc2ccc(Nc3cccc(NS(=O)(=O)N4CC[C@@H](F)C4)c3C#N)cc2c1=O` [Example 43, tert-butyl N-[3-[6-[2-cyano-3-[[(3R)-3-fluoropyrrolidin-1-yl]sulfonylamino]anilino]-4-oxo-quinazolin-3-yl]propyl]carbamate] gave a negative-log EC50 (pEC50) in assay [1] of 5.25. The figures for the pKd at BRAF (V600E) and at BRAF (wt) were 8.14 and 8.35, respectively. Besides, the negative-log IC50 (pIC50) in assay [2] is 7.13.

For the compound `CC(C)(C)OC(=O)N1CCCC(CCn2cnc3ccc(Oc4c(F)ccc(NS(=O)(=O)C5CCCC5)c4C#N)cc3c2=O)C1` (stereo not drawn) [Example 22, tert-butyl 3-[2-[6-[2-cyano-3-(cyclopentylsulfonylamino)-6-fluoro-phenoxy]-4-oxo-quinazolin-3-yl]ethyl]piperidine-1-carboxylate], the pEC50 in assay [1] is no more than 5.00. In addition, the values for the pKd on BRAF (V600E) and on BRAF (wt) were 7.54 and 7.55, respectively. In assay [2], the negative logarithm of the IC50 (pIC50) is 6.81.

In turn, `N#Cc1c(Nc2ccc3ncn(CCOCc4ccccc4)c(=O)c3c2)cccc1NS(=O)(=O)N1CC[C@@H](F)C1` [Example 36, (3R)—N-[3-[[3-(2-benzyloxyethyl)-4-oxo-quinazolin-6-yl]amino]-2-cyano-phenyl]-3-fluoro-pyrrolidine-1-sulfonamide] showed a pEC50 in assay [1] of no more than 5.00. Further, the pKd on BRAF (V600E) was 6.56; at BRAF (wt), 6.88. The pIC50 in assay [2] is 6.94.

`CC(C)(C)OC(=O)N1CCC(NC(=O)CCCn2cnc3ccc(Nc4cccc(NS(=O)(=O)N5CC[C@@H](F)C5)c4C#N)cc3c2=O)CC1` [Example 41] gave a negative-log EC50 (pEC50) in assay [1] of no more than 5.00. The pKd was 8.03 at BRAF (V600E) and 8.21 on BRAF (wt). Further, the negative logarithm of the IC50 (pIC50) in assay [2] is 5.82.

`CC(C)(C)OC(=O)N1CCC(CCn2cnc3ccc(Nc4cccc(NS(=O)(=O)N5CC[C@@H](F)C5)c4C#N)cc3c2=O)CC1` [Example 37, tert-butyl 4-[2-[6-[2-cyano-3-[[(3R)-3-fluoropyrrolidin-1-yl]sulfonylamino]anilino]-4-oxo-quinazolin-3-yl]ethyl]piperidine-1-carboxylate]: in assay [1], the negative logarithm of the EC50 (pEC50) is 5.35. Besides, the pKd on BRAF (V600E) is 7.36; at BRAF (wt) it was 7.68. The compound also gave a negative-log IC50 (pIC50) in assay [2] of 7.09.

Compound `CCC(C)S(=O)(=O)Nc1ccc(F)c(Oc2ccc3ncn(CCC4CCN(C(=O)OC(C)(C)C)CC4)c(=O)c3c2)c1C#N` (stereo not drawn) [Example 15, tert-butyl 4-[2-[6-[2-cyano-6-fluoro-3-(sec-butylsulfonylamino)phenoxy]-4-oxo-quinazolin-3-yl]ethyl]piperidine-1-carboxylate] had a pEC50 in assay [1] of 5.39. Also, the figures for the negative logarithm of the Kd (pKd) on BRAF (V600E) and at BRAF (wt) were 7.03 and 7.30, respectively. Besides, the pIC50 in assay [2] is 7.10.

In assay [1], `CCC(C)S(=O)(=O)Nc1ccc(F)c(Oc2ccc3ncn(CCN4CCN(C(=O)OC(C)(C)C)CC4)c(=O)c3c2)c1C#N` (stereo not drawn) [Example 29, tert-butyl 4-[2-[6-[2-cyano-6-fluoro-3-(sec-butylsulfonylamino)phenoxy]-4-oxo-quinazolin-3-yl]ethyl]piperazine-1-carboxylate] gave a negative-log EC50 (pEC50) of 5.44. Moreover, the pKd was 7.72 on BRAF (V600E) and 8.13 at BRAF (wt). Besides, the pIC50 in assay [2] was 7.74.

`N#Cc1c(NS(=O)(=O)C2CCCC2)ccc(F)c1Oc1ccc2ncn(CCCc3ccccc3)c(=O)c2c1` [Example 11, N-[2-cyano-4-fluoro-3-[4-oxo-3-(3-phenylpropyl)quinazolin-6-yl]oxy-phenyl]cyclopentanesulfonamide] gave a pEC50 in assay [1] of 6.04. Also, the negative-log Kd (pKd) at BRAF (V600E) is 7.30; on BRAF (wt) it was 7.61. The compound also gave a negative-log IC50 (pIC50) in assay [2] of 7.28.

In turn, `CC(C)(C)OC(=O)N1CCC(CCn2cnc3ccc(Nc4cccc(NS(=O)(=O)N5CCCC5)c4C#N)cc3c2=O)CC1` [Example 46, tert-butyl 4-[2-[6-[2-cyano-3-(pyrrolidin-1-ylsulfonylamino)anilino]-4-oxo-quinazolin-3-yl]ethyl]piperidine-1-carboxylate] showed a pEC50 in assay [1] of 5.60. For the same compound, the figures for the negative-log Kd (pKd) at BRAF (V600E) and at BRAF (wt) were 7.13 and 7.67, respectively. The negative logarithm of the IC50 (pIC50) in assay [2] was 7.69.

In assay [1], `CN(CCCn1cnc2ccc(Oc3c(F)ccc(NS(=O)(=O)N4CCCC4)c3C#N)cc2c1=O)C(=O)OC(C)(C)C` [Example 19, tert-butyl N-[3-[6-[2-cyano-6-fluoro-3-(pyrrolidin-1-ylsulfonylamino)phenoxy]-4-oxo-quinazolin-3-yl]propyl]-N-methyl-carbamate] showed a negative-log EC50 (pEC50) of no more than 5.00. Besides, the pKd was 8.64 on BRAF (V600E) and 9.03 on BRAF (wt). The negative-log IC50 (pIC50) in assay [2] was 6.99.

Compound `CCN(C)S(=O)(=O)Nc1cccc(Nc2ccc3ncn(CCOCCOCCNC(=O)OC(C)(C)C)c(=O)c3c2)c1C#N` [Example 34, tert-butyl N-[2-[2-[2-[6-[2-cyano-3-[[ethyl(methyl)sulfamoyl]amino]anilino]-4-oxo-quinazolin-3-yl]ethoxy]ethoxy]ethyl]carbamate] gave a pEC50 in assay [1] of no more than 5.00. The pKd on BRAF (V600E) is 6.61; at BRAF (wt), 7.04. Further, the pIC50 in assay [2] was 6.54.
